Five compounds from patent US20210215694A1, “FILM OF CHITOSAN AND A DEVICE COMPRISING THE SAME DEPOSITED ON A SUBSTRATE AND USES THEREOF” (priority 2018, published 2021) can be followed below.

Data set [1] relates to K12 cells. As to conditions: K12 on commercial chitosan; 50 μL/mL PI; after 30 seconds. As to the method:
Propidium iodide (PI) is used as a DNA stain which cannot cross the membrane of live cells, making it useful to differentiate dead, dying and healthy cells. K12 cells were immobilized to commercial chitosan on microfluidic chamber (channels in PDMS) in presence or absence of EtOH 70%. Channels were rinsed with LB, 50 μL/mL PI.

Data set [2] deals with UTI687. The data set is described as follows: CMI by Vitek. Format: cell-based, Escherichia coli. The source says: (§1) For each conditions, a similar result was obtained.
Data set [3] has as its system UTI687. The data set is described as follows: CMI (MIC) determination on chitosan χ1 channels. Format: cell-based, Escherichia coli.
Text: as §1

For data set [4], the system named is UTI704. The data set is described as follows: CMI by Vitek. Format: cell-based, Escherichia coli.
Text: as §1

The test system of data set [5] is UTI698. The data set is described as follows: CMI by Vitek. Format: cell-based, Escherichia coli.
Text: as §1

The subject of data set [6] is UTI227. As to the kind of experiment: CMI by Vitek. The class given is cell-based, Escherichia coli. The method, then: (§2) Minimum inhibitory concentration. Several experiments were performed with different ETP concentrations added to UTI 227 cells.
For data set [7], the system named is UTI704. As to the kind of experiment: CMI (MIC) determination on chitosan χ1 channels. Format: cell-based, Escherichia coli.
Text: as §1

The test system of data set [8] is UTI698. As to the kind of experiment: CMI (MIC) determination on chitosan χ1 channels. Format: cell-based, Escherichia coli.
Text: as §1

The subject of data set [9] is UTI227. As to conditions: for Outcome: UTI227. As to the method:
CMI determination. Different channels were prepared simultaneously with the same cell suspension. Antibiotic was prepared at different concentrations (one channel contained only LB as a control) and added to channel just before image acquisition: each channel contain a different antibiotic concentration. A picture was taken every 2 or 3 minutes in each channel. At the end of the acquisition we determined if concentrations tested induced cell death or not.
as §2

Data set [10] relates to UTI 687. The data set is described as follows: Dose-dependent answer: cell width. Format: cell-based, Escherichia coli. As to conditions: 2 mg/L, after 1 hour of contact. As to the method: (§3) Dose-dependent answer. Ertapenem (ETP) is an antibiotic used in the medical field in order to determine MIC. ETP was tested at different concentrations on UTI 227 and for each cell observed, the time for cell death was quantified (FIGS. 7B and 7C). […] Similarly, UTI 687 was contacted with different concentration of mecillinam (MEC), and the cell width was quantified.

In data set [11] the test system is K12. The data set is described as follows: Visualization of antibiotics susceptibility. Format: cell-based, Escherichia coli. As to the method: Visualization of antibiotics susceptibility. Two channels were prepared with K12, identically. Before starting picture acquisition, one channel was rinsed with LB media, the other one with LB media supplemented with 100 μg/ml of ampicillin. […] Morphological changes were observed earlier than 1 hour and cell death imaged by lysis occurred right after 2 hours of incubation.

Data set [12] has as its system UTI 687. The data set is described as follows: Antibiotic susceptibility from blood culture on chitosan χ1. The class given is cell-based, Escherichia coli. As to conditions: UTI 687 grown in blood culture vial. The method, then:
Antibiotic susceptibility from blood culture. UTI 687 was cultivated in LB medium and then diluted to obtain a cell concentration close to the one find in blood during septicemia (final concentration: 5 CFU/ml). The suspension was then inoculated in culture vial for blood culture. After over-night culture (agitation, 37° C.), culture suspension was diluted in LB media for a final OD=0.01. Cells are then prepared as describe in material and method to determine cell susceptibility to ETP.
Antibiotic susceptibility from blood culture. […] These debris probably originate from blood culture media. However, it was possible to determine a CMI: CMIχ1≤1, which is coherent with the expected values.

In data set [13] the test system is UTI 687 cells. The data set is described as follows: Cell death detection with propidium iodide stain on chitosan χ1. The class given is cell-based, Escherichia coli. As to conditions: 3 mg/L, 50 μL/mL of PI. The method, then:
Following the protocol described in material and methods, UTI 687 cells were contacted with chitosan χ1 surface. Before acquisition, channel was rinsed with LB supplemented with 3 mg/L of ETP and 50 μL/mL of PI (FIG. 11B).

For data set [14], the system named is UTI 227. As to the kind of experiment: Dose-dependent answer: time for cell death. Format: cell-based, Escherichia coli. As to conditions: different concentrations. As to the method: as §3
[15] abbreviates: concentration 0.25 (head mg/ml, title mg/L).
Where [16] appears, read: concentration 0.5 (head mg/ml, title mg/L).
[17] abbreviates: concentration 1 (head mg/ml, title mg/L).
Setting [18] is: concentration 2 (head mg/ml, title mg/L).

Like-named read-outs stand apart in the source and are kept apart here. Where only a bound is given, the exact number is not on record here.

As to `CCO` [EtOH 70%, EtOH], in data set [1], the “Propidium iodide fluorescence of cells” value was “all the cells incubated with EtOH were fluorescent”.
In the case of `CC1COc2c(N3CCN(C)CC3)c(F)cc3c(=O)c(C(=O)O)cn1c23` (stereo not shown) [Ofloxacin, ofloxacin], the “CMI (Vitek)” value in [2] is recorded as 0.5 mg/L. In addition, the “CMI (measured)” value in data set [3] (chitosan χ1) is at most 0.25 mg/L. Besides, the Outcome result in data set [3] (setting [15]), in data set [3] (setting [16]), in [3] (setting [17]) and in data set [3] (setting [18]) was “Death” in each case.
Regarding `CC1(C)S[C@@H]2[C@H](/N=C/N3CCCCCC3)C(=O)N2[C@H]1C(=O)O` [Mecillinam, mecillinam], the “CMI (Vitek)” value in [4] is on record as 2 mg/L; in data set [5], at most 1 mg/L; in data set [6], 8 mg/L. Further, the “CMI (measured)” value in [7] (chitosan χ1) is listed as at most 2 mg/L; in data set [8] (chitosan χ1), at most 1 mg/L. The Outcome entry was “Growth” in data set [7] (setting [15]); “Growth” in data set [7] (setting [16]); “Growth” in [7] (setting [17]); “Death” in [7] (setting [18]); “Death” in data set [8] (setting [17]); “Death” in data set [8] (setting [18]). In addition, the Outcome entry in data set [8] (concentration 5 (head mg/ml, title mg/L)) is “Death”; in [9] (concentration 4 (mg/L)), “Growth”; in [9] (concentration 8 (mg/L)) it was “Death”; in [9] (concentration 12 (mg/L)), “Death”; in data set [9] (concentration 16 (mg/L)), “Death”. Further, the Cell width entry in data set [10] is on record as “An augmentation was observed”.
Turning to `CC1(C)S[C@@H]2[C@H](NC(=O)[C@H](N)c3ccccc3)C(=O)N2[C@H]1C(=O)O` [ampicillin], the “Time at which morphological changes were observed” value in data set [11] (100 μg/ml) is under 1 hour. The “Time of cell death imaged by lysis” value in [11] (100 μg/ml, incubation) is about 2 h. Besides, the “Effect on cells (in words)” value in data set [11] (LB supplemented with 100 μg/ml) is reported as “cells extended but did not divide”.
For the compound `C[C@@H](O)[C@H]1C(=O)N2C(C(=O)O)=C(S[C@@H]3CN[C@H](C(=O)Nc4cccc(C(=O)O)c4)C3)[C@H](C)[C@H]12` [Ertapenem], the “CMI (Vitek)” value in data set [6] and in data set [6] (listed as ETP) was at most 0.5 mg/L each time. For the same compound, in [9], the “Concentration above which a cytotoxic effect was observed” value is listed as “above 0.01 mg/L”. In addition, the Outcome entry was “Growth” in data set [9] (concentration 0.01 (mg/L)); “Death” in data set [9] (concentration 0.05 (mg/L)); “Death” in [9] (concentration 0.1 (mg/L)); “Death” in [9] (concentration 0.125 (mg/L)); “Death” in [9] (concentration 0.25 (mg/L)); “Death” in data set [9] (concentration 0.5 (mg/L)). In addition, the Outcome result in data set [9] (concentration 0.75 (mg/L)) is reported as “Death”. For the same compound, the CMIχ1 in data set [12] is reported as at most 1. Also, the “Propidium iodide staining of cells” value in data set [13] is reported as “some cells turned in red”. In addition, the “Time for cell death according to concentration” value in data set [14] is given as “significantly faster for a higher concentration”.
